The source of these data is patent publication US20220016125A1, “RIBOFLAVIN FOR TREATING COLLAGENOUS TISSUES IN THE DISEASES OF JOINTS, PARTICULARLY OF INVERTEBRAL DISCS” (Albert-Ludwigs-Universitat Freiburg, priority 2018, published 2022).

SMILES strings stand for the structures.

In test [1] the test system is collagen fibers in the transition zone between the annulus fibrosus and nucleus pulposus. Put plainly: Riboflavin/UV crosslinking of collagen fibers in bovine intervertebral disc cryosections, autofluorescence microscopy. The note with it: 10 bovine samples, 0.6 mm slices; 0.1 mL of 0.25% riboflavin solution twice at 30 s interval; UV 370 nm, 9 mW/cm^2, two minutes. The procedure:
(§1) Five freshly frozen bovine intervertebral discs and two freshly frozen human intervertebral discs from the Anatomy department of the University of Freiburg were used for the experiments (see FIG. 6).
(§2) The intervertebral discs were thinly cut into 0.6 mm thick slices using a cryomicrotome and placed on glass plates (see FIG. 7). The thin discs arise from the transition zone between the annulus fibrosus and nucleus pulposus, which is indicated by a rectangle in FIG. 6.
(§3) A total of 10 bovine and 10 human samples were prepared and examined for the experiments.
(§4) Before treatment with riboflavin, the samples were imaged by autofluorescence microscopy to visualize the collagen fibers. The architecture, orientation and crosslinking density of the collagen fibers in the samples before treatment are shown in FIGS. 9 a) and 10 a).
(§5) To crosslink the collagen fibers, 0.1 mL of a riboflavin solution at a concentration of 0.25% was administered twice at a time interval of 30 seconds. The sample was then irradiated with UV light.
(§6) A UV radiation source with an average wavelength of 370 nm (365-375 nm) was used to irradiate the samples. […]
(§7) After the treatment, the collagen fibers were reimaged using autofluorescence microscopy in order to visualize the identical sample area. This allows changes in the crosslinking density of the collagen fibers to be detected.

Test [2] has the same test system. The test can be described thus: Riboflavin/UV crosslinking of collagen fibers in human intervertebral disc cryosections, autofluorescence microscopy. The note with it: 10 human samples, 0.6 mm slices; 0.1 mL of 0.25% riboflavin solution twice at 30 s interval; UV 370 nm, 9 mW/cm^2, two minutes. The procedure:
as §1, §2, §3, §4, §5, §6, §7

Test [3] has as its system bovine intervertebral discs. Put plainly: Young's modulus of fresh bovine intervertebral discs before and after UV irradiation (Biomomentum Mach-1). The following applies: 8 mM riboflavin (riboflavin 5′-phosphate sodium salt hydrate) in PBS, 15 min soak, 365 nm UVA, 3.5 mW/cm^2, 15 minutes. The procedure: For the characterization, Young's modulus or modulus of elasticity (Akhtar et. Al 2011) was determined locally on an established device (Biomomentum Mach-1 Biomomentum Inc.; Sim et al. 2014).
Fresh bovine tails were provided from the local meat processing plant within 2 hours of slaughter. The paravertebral structure was removed (FIG. 11).
Bovine intervertebral discs (IVDs), which are attached to the vertebral body, were isolated (FIG. 12).
In order to stabilize the samples on the device, the bovine vertebral bodies with attached intervertebral discs were fixed in PMMA bone cement (FIG. 13).
With the aid of the camera of the Biomomentum device, the surface of the bovine intervertebral discs was measured with respect to their biomechanical properties (Young's modulus) (FIG. 14).
A solution with 8 mM riboflavin (riboflavin 5′-phosphate sodium salt hydrate, Sigmaaldrich) in PBS (phosphate buffered saline solution) and pH: 7.4 water (Thermofisher) was used to soak the exposed surface of the bovine intervertebral discs for 15 minutes (dark mode). Immediately afterwards, the samples were placed in the Biomomentum device for analysis (dark mode).
After the analysis, the same sample was irradiated homogeneously with 365 nm UVA light (Opsytech Dr. Groebel-UV LED series L) at 3.5 mW/cm^2 for 15 minutes. A second analysis of the previously measured positions followed.
A total of 38 measurements were carried out on 15 healthy bovine intervertebral discs.
The percentage stiffening corresponds to the percentage increase in Young's modulus after UV irradiation, compared to the value measured before UV irradiation.

Where [4] appears, read: compared to value before UV irradiation.

On to `Cc1cc2nc3c(=O)[nH]c(=O)nc-3n(C[C@H](O)[C@H](O)[C@H](O)CO)c2cc1C` [riboflavin, 7,8-dimethyl-10-(D-ribit-1-yl)-isoalloxazine], for which the “crosslinking density of the collagen fibers” value in test [1] and in test [2] was “visually evident increase in the crosslinking density” each time. Further, the “elastic properties (Young's modulus) after UV irradiation” value in test [3] (38 measurements on 15 discs) was “Stiffening or reinforcement of the elastic properties (Young's modulus) was observed in all samples”. The “maximum stiffening (percentage increase in Young's modulus after UV irradiation)” value in test [3] (setting [4]) was 348%. Moreover, the “minimum stiffening or reinforcement (percentage increase in Young's modulus after UV irradiation)” value in test [3] (setting [4]) amounted to 52%.
